Laboratory results taken from US9499550B2 (BRISTOL-MYERS SQUIBB COMPANY, priority 2012, dated 2016).
Like-named read-outs stand apart in the source and are kept apart here.

How the values were obtained:
[1] = system: HCV genotype 1a (H77 strain) replicon in HUH-7 cells; assay: HCV replicon luciferase reporter assay, genotype 1a; format: cell-based; details: 3 days incubation, read-out: LE_1a (EC50, range)
Outline: (§1)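 Replicon inhibition for both genotypes was measured as Renilla luciferase signal (EnduRen, 7.5 μM final, 2 h) after 3-day, 37° C exposure of replicon-bearing HUH-7 cells in 4% FCS DMEM, 0.5% DMSO. The 1b construct carries S1179I; the 1a H77 construct carries P1496L and S2204I. Twenty-point, 3-fold dilutions were fitted four-parametrically for EC50, and CC50 was taken from multiplexed Cell Titer-Blue.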

[2] = system: HCV genotype 1b (Con1) replicon in HUH-7 cells; assay: HCV replicon luciferase reporter assay, genotype 1b; format: cell-based; details: 3 days incubation, read-out: LE_1b (EC50, range)
Outline: as §1

[3] = Hepatitis C virus, Huh-7, 72 h, HCV genotype 1a replicon luciferase
[4] = Hepatitis C virus, Huh-7, 72 h, HCV genotype 1b replicon luciferase

Row | Compound | EC50 [1, 3] | EC50 [2, 4] | further results
1 | COc1ccc2c(O[C@@H]3C[C@H]4C(=O)N[C@]5(C(=O)NS(=O)(=O)C6(CF)CC6)C[C@H]5/C=C\CC[C@H](C)C[C@@H](C)[C@H](NC(=O)OC(C)(C)C(F)(F)F)C(=O)N4C3)nc(OC)cc2c1 [Compound 1126, 1,1,1-trifluoro-2-methylpropan-2-yl((2R,6S,7R,9S,13aS,14aR,16aS,Z)-2-((3,6-dimethoxyisoquinolin-1-yl)oxy)-14a-(((1-(fluoromethyl)cyclopropyl)sulfonyl)carbamoyl)-7,9-dimethyl-5,16-dioxo-1,2,3,5,6,7,8,9,10,11,13a,14,14a,15,16,16a-hexadecahydrocyclopropa[e]pyrrolo[1,2-a][1,4]diazacyclopentadecin-6-yl)carbamate] |  |  | EC50 ([1]; Hepatitis C virus, Huh-7, 72 h, HCV genotype 1a replicon luciferase assay, range class): 4.82 to 103 nM; EC50 ([2]; Hepatitis C virus, Huh-7, 72 h, HCV genotype 1b replicon luciferase assay, range class): < 5.46 nM
2 | CCCOc1cnc(O[C@@H]2C[C@H]3C(=O)N[C@]4(C(=O)NS(=O)(=O)C5CC5)C[C@H]4/C=C\CC[C@H](C)C[C@@H](C)[C@H](NC(=O)NC(C)(C)C(F)(F)F)C(=O)N3C2)c2ccccc12 [Compound 5098, (2R,6S,7R,9S,13aS,14aR,16aS,Z)—N-(cyclopropylsulfonyl)-7,9-dimethyl-5,16-dioxo-2-((4-propoxyisoquinolin-1-yl)oxy)-6-(3-(1,1,1-trifluoro-2-methylpropan-2-yl)ureido)-1,2,3,5,6,7,8,9,10,11,13a,14,14a,15,16,16a-hexadecahydrocyclopropa[e]pyrrolo[1,2-a][1,4]diazacyclopentadecine-14a-carboxamide] | > 87.4 nM | > 87.4 nM | 
3 | [2H]C([2H])([2H])C(OC(=O)N[C@@H]1C(=O)N2C[C@H](Oc3nccc4c5c(ccc34)N(C)CCO5)C[C@H]2C(=O)N[C@]2(C(=O)NS(=O)(=O)C3CC3)C[C@H]2/C=C\CC[C@@H](C)C[C@H]1C)(C([2H])([2H])[2H])C(F)(F)F [Compound 5280, 1,1,1,3,3,3-hexadeutero-2-(trifluoromethyl)propan-2-yl((2R,6S,7R,9R,13aS,14aR,16aS,Z)-14a-((cyclopropylsulfonyl)carbamoyl)-7,9-dimethyl-2-((4-methyl-3,4-dihydro-2H-[1,4]oxazino[2,3-f]isoquinolin-7-yl)oxy)-5,16-dioxo-1,2,3,5,6,7,8,9,10,11,13a,14,14a,15,16,16a-hexadecahydrocyclopropa[e]pyrrolo[1,2-a][1,4]diazacyclopentadecin-6-yl)carbamate] | < 5.46 nM | < 5.46 nM | 
4 | 3,3-difluoro-2-methylbutan-2-yl((2R,6S,7R,9R,13aS,14aR,16aS,Z)-7-ethyl-2-((2-(3-fluoro-4-isopropoxyphenyl)-7-methoxyquinolin-4-yl)oxy)-9-methyl-14a-(((1-methylcyclopropyl)sulfonyl)carbamoyl)-5,16-dioxo-1,2,3,5,6,7,8,9,10,11,13a,14,14a,15,16,16a-hexadecahydrocyclopropa[e]pyrrolo[1,2-a][1,4]diazacyclopentadecin-6-yl)carbamate [Compound 5550] |  |  | EC50 ([1]; HCV genotype 1a replicon luciferase): 0.51 to 1 nM; EC50 ([2]; HCV genotype 1b replicon luciferase): 1.01 to 5 nM
5 | C[C@H]1CC/C=C\[C@@H]2C[C@@]2(C(=O)NS(=O)(=O)C2(C)CC2)NC(=O)[C@@H]2C[C@@H](Oc3nccc4c5c(ccc34)N(C)CCO5)CN2C(=O)[C@@H](NC(=O)C(=O)N(C)C)[C@H](C)C1 [Compound 5305, N1-((2R,6S,7R,9S,13aS,14aR,16aS,Z)-7,9-dimethyl-2-((4-methyl-3,4-dihydro-2H-[1,4]oxazino[2,3-f]isoquinolin-7-yl)oxy)-14a-(((1-methylcyclopropyl)sulfonyl)carbamoyl)-5,16-dioxo-1,2,3,5,6,7,8,9,10,11,13a,14,14a,15,16,16a-hexadecahydrocyclopropa[e]pyrrolo[1,2-a][1,4]diazacyclopentadecin-6-yl)-N2,N2-dimethyloxalamide] | 4.82 to 103 nM | 4.82 to 103 nM | 
